Reference: patent US11185542B2, “Uses of dopamine beta-hydroxylase (DBH) inhibitors and serotonin receptor (5-HT) antagonists for the treatment of cancer” (Jiangsu Yahong Meditech Co., Ltd., priority 2016, dated 2021)

Tests used:
[1] = tested on: H22 murine hepatic cancer xenograft; assay: In vivo tumor growth, H22 murine hepatic cancer xenograft model, compared with anti-PD-1 mAb (Example 5); set-up: species or system Mouse (Mus Musculus); settings: p.o.; for Tumor Volume (mm^3): QD x 20 days; for T/C (%) / TGI (%) tumor growth inhibition: QD
Experimental: (§1) Experiments using the murine H22, CT-26 and EMT-6 xenograft models were performed as described below.
(§2) Cells were cultured in RPMI-1640 medium supplemented with 10% FBS at 37° C. in an atmosphere of 5% CO2 in air. The tumor cells were routinely subcultured three times weekly. The cells that grew in an exponential growth phase were harvested and counted for tumor inoculation.
(§3) Mice (female, 6-8 weeks old) were inoculated subcutaneously at the right flank with the tumor cells (H22, EMT-6, or CT-26) in 0.1 mL PBS for tumor development. When the tumor volume reached approximately 60-80 mm^3, the mice were grouped randomly according to the animal body weight and tumor volume. Each group had 5-8 tumor-bearing mice.
(§4) The major endpoint was to determine if tumor growth could be delayed or mice could be cured. Tumor volume was measured three times weekly in two dimensions using a caliper, and the volume was expressed in mm^3 using the formula: V=0.5 a×b^2, where a and b are the long and short diameters of the tumor, respectively. The T/C value (in percent) was an indication of antitumor effectiveness, where T and C were the mean volume of the treated and control groups, respectively, on a given day. The T-C value was calculated according to TV. T-C was calculated with T as the median time (in days) required for the treatment group tumors to reach a predetermined size (e.g., TV as 1000 mm^3), and C as the median time (in days) for the control group tumors to reach the same size. The body weights were measured and recorded at the same time to observe the toxicity of the compounds. The animals were sacrificed at the termination of the study.
(§5) Summary statistics, including mean and the standard error of the mean (SEM), are provided for the tumor volume of each group at each time point. A two-way analysis of variance (ANOVA) was performed to compare body weight, tumor volume and tumor volume change. A one-way ANOVA was performed to compare tumor weight. All data were analyzed using GraphPad Prism 5. p<0.05 was considered to be statistically significant.
The anti-cancer activity of nepicastat, etamicastat and anti-PD-1 monoclonal antibody (mAb) was evaluated in a H22 murine hepatic cancer xenograft model according to the experimental procedure described in Example 2.

[2] = tested on: H22 murine hepatocarcinoma cell line; assay: In vitro cell proliferation assay (CellTiter-Glo) in H22 murine hepatocarcinoma cell line; format: cell-based; settings: for anti-proliferative effect on H22 cell line: 1 μM and 0.1, in words; for viability at 0.1 µM / viability at 1 µM: H22, 72 h; for viability at 0.1 µM: read-out: Cell viability (%), 0.1 μM, 72 h, H22 cells; for viability at 1 µM: read-out: Cell viability (%), 1 μM, 72 h, H22 cells
Experimental: Methods: • (1) Cells were cultured in RPMI-1640 medium supplemented with 10% FBS, 100 U/ml penicillin, and […] streptomycin at 37° C. and 5% CO2 atmosphere. […] The anti-proliferative activity of amperozide, nepicastat, and paclitaxel was tested in the H22 murine hepatocarcinoma cell line according to the experimental procedure described in Example 1.

[3] = tested on: H22 murine hepatic cancer xenograft; assay: In vivo tumor growth, H22 murine hepatic cancer xenograft model (Example 4); set-up: species or system Mouse (Mus Musculus)
Experimental: as §1, §2, §3, §4, §5
The anti-cancer activity of amperozide and nepicastat was evaluated in a H22 murine hepatic cancer xenograft model according to the experimental procedure described in Example 2. Anti-cancer activity was evaluated by measuring changes in tumor volume.

[4] = clinical dosage of amperozide 10 mg/day; read-out: plasma maximal concentration (Cmax); cited from earlier work

**Q.** Which results are given for NCCc1c[nH]c(=S)n1[C@H]1COc2c(F)cc(F)cc2C1 [Etamicastat, etamicastat]?
**A.** Tumor Volume (mm^3) ([1]; Etamicastat 80 mg/kg, day 3): 56.40 ± 4.21 mm^3; Tumor Volume (mm^3) ([1]; Etamicastat 80 mg/kg, day 6): 142.74 ± 14.75 mm^3; Tumor Volume (mm^3) ([1]; Etamicastat 80 mg/kg, day 9): 325.41 ± 39.55 mm^3; Tumor Volume (mm^3) ([1]; Etamicastat 80 mg/kg, day 13): 437.62 ± 48.77 mm^3; Tumor Volume (mm^3) ([1]; Etamicastat 80 mg/kg, day 16): 645.29 ± 50.41 mm^3; Tumor Volume (mm^3) ([1]; Etamicastat 80 mg/kg, day 19): 892.56 ± 131.83 mm^3; Tumor Volume (mm^3) ([1]; Etamicastat 80 mg/kg, day 22): 1210.52 ± 197.23 mm^3; Tumor Volume (mm^3) ([1]; Etamicastat 80 mg/kg, day 22, listed as etamicastat): 1,210.52 mm^3; T/C (%) ([1]; Etamicastat 80 mg/kg, day 22): 70.42%; TGI (%) tumor growth inhibition ([1]; Etamicastat 80 mg/kg, day 22): 29.58%; Tumor Volume (mm^3) ([1]; Etamicastat 160 mg/kg, day 3): 56.42 ± 3.25 mm^3; Tumor Volume (mm^3) ([1]; Etamicastat 160 mg/kg, day 6): 134.64 ± 14.18 mm^3; Tumor Volume (mm^3) ([1]; Etamicastat 160 mg/kg, day 9): 270.71 ± 33.96 mm^3; Tumor Volume (mm^3) ([1]; Etamicastat 160 mg/kg, day 13): 513.74 ± 103.91 mm^3; Tumor Volume (mm^3) ([1]; Etamicastat 160 mg/kg, day 16): 825.29 ± 198.51 mm^3; Tumor Volume (mm^3) ([1]; Etamicastat 160 mg/kg, day 19): 1167.51 ± 300.84 mm^3; Tumor Volume (mm^3) ([1]; Etamicastat 160 mg/kg, day 22): 1309.12 ± 492.02 mm^3; Tumor Volume (mm^3) ([1]; Etamicastat 160 mg/kg, day 22, listed as etamicastat): 1,309.12 mm^3; T/C (%) ([1]; Etamicastat 160 mg/kg, day 22): 76.16%; TGI (%) tumor growth inhibition ([1]; Etamicastat 160 mg/kg, day 22): 23.84%

**Q.** Which “anti-proliferative effect on H22 cell line” value [2] does the source give for CC(=O)O[C@H]1C(=O)[C@@]2(C)[C@H]([C@H](OC(=O)c3ccccc3)[C@]3(O)C[C@H](OC(=O)[C@H](O)[C@@H](NC(=O)c4ccccc4)c4ccccc4)C(C)=C1C3(C)C)[C@]1(OC(C)=O)CO[C@@H]1C[C@@H]2O [Paclitaxel] here?
**A.** strong inhibition effect

**Q.** And the viability at 0.1 µM ([2]; Mus musculus)?
**A.** 28.4%

**Q.** What about the viability at 1 µM ([2]; Mus musculus) of the same compound?
**A.** 20.8%

**Q.** And the “T-C (days) (Reach 1000 mm^3)” value ([3]; Paclitaxel 15 mg/kg)?
**A.** 2 days

**Q.** What about the “Tumor Volume” value ([3]; Paclitaxel 15 mg/kg, day 5) of the same compound?
**A.** 80 ± 9 mm^3

**Q.** And the “Tumor Volume” value ([3]; Paclitaxel 15 mg/kg, day 7)?
**A.** 140 ± 17 mm^3

**Q.** And the “Tumor Volume” value ([3]; Paclitaxel 15 mg/kg, day 9)?
**A.** 270 ± 48 mm^3

**Q.** What about the “Tumor Volume” value ([3]; Paclitaxel 15 mg/kg, day 12) of the same compound?
**A.** 435 ± 60 mm^3

**Q.** And the “Tumor Volume” value ([3]; Paclitaxel 15 mg/kg, day 14)?
**A.** 722 ± 105 mm^3

**Q.** What about the “Tumor Volume” value ([3]; Paclitaxel 15 mg/kg, day 16) of the same compound?
**A.** 1,188 ± 206 mm^3

**Q.** What about the “T/C (%)” value ([3]; Paclitaxel 15 mg/kg, day 19) of the same compound?
**A.** 65.5%

**Q.** What about the “TGI (%) tumor growth inhibition” value ([3]; Paclitaxel 15 mg/kg, day 19) of the same compound?
**A.** 34.5%

**Q.** What about the “Tumor Volume” value ([3]; Paclitaxel 15 mg/kg, day 19) of the same compound?
**A.** 1,982 ± 327 mm^3

**Q.** And the “Tumor Volume” value ([3]; Paclitaxel 15 mg/kg, day 19, listed as paclitaxel)?
**A.** 1982 mm^3

**Q.** Which results are given for CCNC(=O)N1CCN(CCCC(c2ccc(F)cc2)c2ccc(F)cc2)CC1 [Amperozide, amperozide]?
**A.** anti-proliferative effect on H22 cell line [2]: did not show any significant anti-proliferative effects; viability at 0.1 µM ([2]; Mus musculus): 100%; viability at 1 µM ([2]; Mus musculus): 95.1%; IC50 ([2]; Mus musculus, calculated from FIG. 1, read-out: IC50 in H22 murine hepatocarcinoma cells proliferation): 38.8 µM; T-C (days) (Reach 1000 mm^3) ([3]; Amperozide 2 mg/kg): 2 days; Tumor Volume ([3]; Amperozide 2 mg/kg, day 5): 80 ± 9 mm^3; Tumor Volume ([3]; Amperozide 2 mg/kg, day 7): 166 ± 19 mm^3; Tumor Volume ([3]; Amperozide 2 mg/kg, day 9): 355 ± 36 mm^3; Tumor Volume ([3]; Amperozide 2 mg/kg, day 12): 576 ± 48 mm^3; Tumor Volume ([3]; Amperozide 2 mg/kg, day 14): 806 ± 31 mm^3; Tumor Volume ([3]; Amperozide 2 mg/kg, day 16): 1,219 ± 39 mm^3; T/C (%) ([3]; Amperozide 2 mg/kg, day 19): 64.4%; TGI (%) tumor growth inhibition ([3]; Amperozide 2 mg/kg, day 19): 35.6%; Tumor Volume ([3]; Amperozide 2 mg/kg, day 19): 1,948 ± 158 mm^3; Tumor Volume ([3]; Amperozide 2 mg/kg, day 19, listed as amperozide): 1948 mm^3; T-C (days) (Reach 1000 mm^3) ([3]; Amperozide 6 mg/kg): 1 days; Tumor Volume ([3]; Amperozide 6 mg/kg, day 5): 80 ± 9 mm^3; Tumor Volume ([3]; Amperozide 6 mg/kg, day 7): 174 ± 26 mm^3; Tumor Volume ([3]; Amperozide 6 mg/kg, day 9): 367 ± 51 mm^3; Tumor Volume ([3]; Amperozide 6 mg/kg, day 12): 602 ± 77 mm^3; Tumor Volume ([3]; Amperozide 6 mg/kg, day 14): 1,004 ± 75 mm^3; Tumor Volume ([3]; Amperozide 6 mg/kg, day 16): 1,625 ± 101 mm^3; T/C (%) ([3]; Amperozide 6 mg/kg, day 19): 95.9%; TGI (%) tumor growth inhibition ([3]; Amperozide 6 mg/kg, day 19): 4.1%; Tumor Volume ([3]; Amperozide 6 mg/kg, day 19): 2,903 ± 315 mm^3; Cmax [4]: ~100 nM
